Source: patent US7223543B2, “Conjugated linoleic acid isomerase and a process for the production of conjugated linoleic acid” (Teagasc Dairy Products Research Centre, priority 2001, dated 2007)

System: B.breve 2258
Experiment: Growth inhibition of B.breve 2258 by trilinolein compared with free linoleic acid
Type: cell-based, Bifidobacterium breve
Settings: compared with similar concentrations of free linoleic acid
Source text: B.breve NCFB 2258 was further investigated for ability to utilise triglyceride bound linoleic acid as substrate for CLA production. B.breve NCFB 2258 was inoculated from a fully grown culture into MRS broth with added cysteine (0.05%) and trilinolein (C18:2, cis-9, cis-12, 99% pure, Sigma Chemical Co.), soybean oil and sunflower oil (purchased from a local grocery store) containing known linoleic acid concentrations. The triglyceride mixtures were sterile-filtered through 0.45 μm […] filters and added as 5 mg/ml aqueous solutions in 2.5% (v/v) Tween 80. Substantial vortexing was required to dissolve the fat particles. The volume of the triglyceride stock solutions added was calculated to give a final concentration of 0.2 mg linoleic acid/ml of broth. B.breve 2258 was inoculated into MRS broth in the presence of the triglyceride substrates under anaerobic conditions at 37° C. and incubated for 48 h.

Compound: CCCCC/C=C\C/C=C\CCCCCCCC(=O)OCC(COC(=O)CCCCCCC/C=C\C/C=C\CCCCC)OC(=O)CCCCCCC/C=C\C/C=C\CCCCC [trilinolein]
- growth inhibition of B.breve 2258: did not inhibit the growth of B.breve 2258 to the same extent as similar concentrations of free linoleic acid
